# From patent publication US11833207B2, “Adipocyte-targeting DNA nanodrug and preparation and uses thereof” (HUNAN UNIVERSITY, priority 2020, dated 2023)
# Experiments:
# [1] = EPR measurement of O2·− scavenging (DEPMPO trapper)
# Protocol: Electron paramagnetic resonance (EPR) measurements were performed to evaluate the O2·^−- and ·OH-scavenging abilities of DNA hybrid nanostructures TADN. DEPMPO was used as the trapper. O2·^− was generated by dissolving KO2 in DMSO/crown ether (0.2 M). ·OH was produced by the Fenton-type reaction using H2O2 and CuSO4.
# [2] = target: BSA (Bos taurus, UniProt P02769); experiment: Nonspecific protein (BSA) absorption by BSA fluorescence
# BSA, sequence (P02769 25-607): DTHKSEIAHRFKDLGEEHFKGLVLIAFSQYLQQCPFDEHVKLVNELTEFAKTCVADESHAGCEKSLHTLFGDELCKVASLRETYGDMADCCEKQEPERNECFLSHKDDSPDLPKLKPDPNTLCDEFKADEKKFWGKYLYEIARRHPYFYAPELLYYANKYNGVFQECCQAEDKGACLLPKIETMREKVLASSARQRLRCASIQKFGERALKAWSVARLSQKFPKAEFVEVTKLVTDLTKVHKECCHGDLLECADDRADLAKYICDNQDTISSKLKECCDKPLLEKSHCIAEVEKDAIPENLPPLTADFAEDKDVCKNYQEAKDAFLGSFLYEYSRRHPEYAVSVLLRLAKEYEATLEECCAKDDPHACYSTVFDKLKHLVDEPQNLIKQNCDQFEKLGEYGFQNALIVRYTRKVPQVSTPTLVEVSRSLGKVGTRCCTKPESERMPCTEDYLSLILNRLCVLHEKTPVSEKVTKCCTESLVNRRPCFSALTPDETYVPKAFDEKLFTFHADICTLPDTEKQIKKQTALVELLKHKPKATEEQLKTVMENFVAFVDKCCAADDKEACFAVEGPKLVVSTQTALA
# [3] = tested on: 3T3-L1 preadipocytes; type: cell-based; details: mouse, 24 h
# Protocol: 3T3-L1 preadipocytes were seeded in a 96-well plate at 10^4/well. After culturing for 24 h, the preadipocytes were added with TA, TDM or TADN for another 24 h culture. The culture medium was removed, and the cells were washed twice with PBS, followed by the addition of 100 μL of fresh culture medium and 10 μL of CCK-8 for the CCK-8 assay according to the manufacturer's protocol. The UV absorbance of each well at 450 nm was recorded using a Synergy 2 multifunctional microplate reader (Bio-Tek, Winooski, Vt.).
smiles,measurement,setting,value
"O=C(OC[C@H]1O[C@@H](OC(=O)c2cc(O)c(O)c(OC(=O)c3cc(O)c(O)c(O)c3)c2)[C@H](OC(=O)c2cc(O)c(O)c(OC(=O)c3cc(O)c(O)c(O)c3)c2)[C@@H](OC(=O)c2cc(O)c(O)c(OC(=O)c3cc(O)c(O)c(O)c3)c2)[C@@H]1OC(=O)c1cc(O)c(O)c(OC(=O)c2cc(O)c(O)c(O)c2)c1)c1cc(O)c(O)c(OC(=O)c2cc(O)c(O)c(O)c2)c1 [TA, tannic acid]",O2·−-scavenging activity,[1]; EPR,comparable scavenging activity to TADN
same,O2·−-scavenging stability,[1]; after 24 h,almost disappeared
same,protein adsorption,[2],tended to absorb proteins
same,concentration above which cytotoxicity increases,[3],above 25 μM
